Laboratory results as given in ChEMBL document CHEMBL4184166 (Bioorg Med Chem Lett, 2017).

How the values were obtained:
Cytochrome P450 2D6 [1] = target: T1, Cytochrome P450 2D6 (Homo sapiens, UniProt P10635); assay: Inhibition of recombinant human CYP2D6 expressed in yeast microsomal membranes by fluorescence assay; type: ADME, cell membranes, Microsomal Membrane
Cytochrome P450 1A1 [2] = target: T2, Cytochrome P450 1A1 (Homo sapiens, UniProt P04798); assay: Inhibition of human CYP1A expressed in HEK293 cells by fluorescence assay; type: ADME, cell-based
T2 sequence (P04798 whole entry): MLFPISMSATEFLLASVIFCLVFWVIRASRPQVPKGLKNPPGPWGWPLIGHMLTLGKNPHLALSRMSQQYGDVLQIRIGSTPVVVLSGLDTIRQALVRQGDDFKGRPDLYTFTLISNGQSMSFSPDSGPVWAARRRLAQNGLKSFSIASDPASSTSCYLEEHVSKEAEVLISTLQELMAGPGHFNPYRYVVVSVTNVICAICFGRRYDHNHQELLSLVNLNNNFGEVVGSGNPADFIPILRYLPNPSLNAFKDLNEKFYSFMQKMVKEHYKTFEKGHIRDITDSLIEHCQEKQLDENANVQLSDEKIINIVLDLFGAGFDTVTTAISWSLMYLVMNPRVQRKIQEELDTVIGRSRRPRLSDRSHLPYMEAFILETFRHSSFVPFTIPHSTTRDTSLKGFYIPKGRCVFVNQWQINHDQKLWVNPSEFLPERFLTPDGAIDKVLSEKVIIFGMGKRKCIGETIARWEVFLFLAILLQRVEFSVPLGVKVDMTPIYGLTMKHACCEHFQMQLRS

Cytochrome P450 3A4 [3] = target: T3, Cytochrome P450 3A4 (Homo sapiens, UniProt P08684); assay: Inhibition of recombinant human CYP3A4 expressed in yeast microsomal membranes by fluorescence assay; type: ADME, cell membranes, Microsomal Membrane
Cytochrome P450 1B1 [4] = target: T4, Cytochrome P450 1B1 (Homo sapiens, UniProt Q16678); assay: Inhibition of human CYP1B1 expressed in HEK293 cells by fluorescence assay; type: cell-based
T4 sequence (Q16678 whole entry): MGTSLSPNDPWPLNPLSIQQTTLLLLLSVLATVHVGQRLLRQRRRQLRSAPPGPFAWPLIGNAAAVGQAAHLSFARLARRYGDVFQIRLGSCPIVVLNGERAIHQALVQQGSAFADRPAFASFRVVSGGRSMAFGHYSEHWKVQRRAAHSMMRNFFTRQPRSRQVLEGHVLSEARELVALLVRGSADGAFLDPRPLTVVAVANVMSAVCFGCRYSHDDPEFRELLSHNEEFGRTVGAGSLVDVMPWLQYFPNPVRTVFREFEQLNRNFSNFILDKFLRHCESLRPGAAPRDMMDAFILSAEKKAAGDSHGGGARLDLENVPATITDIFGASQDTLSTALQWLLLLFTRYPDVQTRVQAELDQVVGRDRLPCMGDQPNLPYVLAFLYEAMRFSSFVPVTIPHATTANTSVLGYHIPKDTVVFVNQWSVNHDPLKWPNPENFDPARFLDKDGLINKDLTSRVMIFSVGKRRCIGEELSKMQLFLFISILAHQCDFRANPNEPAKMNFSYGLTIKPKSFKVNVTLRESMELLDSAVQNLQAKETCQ

Cytochrome P450 1A2 [5] = target: T5, Cytochrome P450 1A2 (Homo sapiens, UniProt P05177); assay: Inhibition of human CYP1A2 expressed in HEK293 cells by fluorescence assay; type: ADME, cell-based
T5 sequence (P05177 whole entry): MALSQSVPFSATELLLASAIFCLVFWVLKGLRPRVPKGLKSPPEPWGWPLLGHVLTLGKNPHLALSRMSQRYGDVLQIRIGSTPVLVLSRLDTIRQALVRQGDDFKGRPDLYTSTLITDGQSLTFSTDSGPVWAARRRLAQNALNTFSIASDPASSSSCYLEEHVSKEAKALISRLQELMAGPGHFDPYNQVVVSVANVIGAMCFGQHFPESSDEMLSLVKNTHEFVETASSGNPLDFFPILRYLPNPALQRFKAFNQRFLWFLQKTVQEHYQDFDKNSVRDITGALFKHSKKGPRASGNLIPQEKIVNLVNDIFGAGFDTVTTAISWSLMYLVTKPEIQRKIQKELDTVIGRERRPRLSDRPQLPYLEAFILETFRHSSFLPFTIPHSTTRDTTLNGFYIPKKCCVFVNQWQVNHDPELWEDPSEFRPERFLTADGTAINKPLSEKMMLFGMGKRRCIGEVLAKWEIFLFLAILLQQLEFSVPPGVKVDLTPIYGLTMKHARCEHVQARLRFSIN

Cytochrome P450 2D6 [6] = target: T1, Cytochrome P450 2D6; assay: Inhibition of human CYP2D6 expressed in HEK293 cells by fluorescence assay; type: ADME, cell-based
Cytochrome P450 1A1 [7] = target: T2, Cytochrome P450 1A1; assay: Inhibition of recombinant human CYP1A1 expressed in yeast microsomal membranes by fluorescence assay; type: cell membranes
Cytochrome P450 3A4 [8] = target: T3, Cytochrome P450 3A4; assay: Inhibition of human CYP3A4 expressed in HEK293 cells by fluorescence assay; type: ADME, cell-based
CYP1A1 = target: T6, CYP1A1 (Homo sapiens, UniProt P04798); assay: Inhibition of recombinant human CYP1A1 expressed in yeast microsomal membranes at 10 uM by fluorescence assay relative to control; type: cell membranes
T6 sequence (P04798 whole entry): T2 sequence (P04798 whole entry)

Cytochrome P450 1A2 [9] = target: T5, Cytochrome P450 1A2; assay: Inhibition of recombinant human CYP1A2 expressed in yeast microsomal membranes by fluorescence assay; type: ADME, cell membranes, Microsomal Membrane
CYP1B1 = target: T7, CYP1B1 (Homo sapiens, UniProt Q16678); assay: Inhibition of human CYP1B1 expressed in yeast microsomal membranes at 10 uM using 7-ethoxyresorufin as substrate by fluorescence assay relative to control; type: cell membranes; conditions: probe 7-ethoxyresorufin
T7 sequence (Q16678 whole entry): T4 sequence (Q16678 whole entry)

Cytochrome P450 1B1 [10] = target: T4, Cytochrome P450 1B1; assay: Inhibition of human CYP1B1 expressed in yeast microsomal membranes using 7-ethoxyresorufin as substrate by fluorescence assay; type: cell membranes

T1 sequence (P10635 whole entry): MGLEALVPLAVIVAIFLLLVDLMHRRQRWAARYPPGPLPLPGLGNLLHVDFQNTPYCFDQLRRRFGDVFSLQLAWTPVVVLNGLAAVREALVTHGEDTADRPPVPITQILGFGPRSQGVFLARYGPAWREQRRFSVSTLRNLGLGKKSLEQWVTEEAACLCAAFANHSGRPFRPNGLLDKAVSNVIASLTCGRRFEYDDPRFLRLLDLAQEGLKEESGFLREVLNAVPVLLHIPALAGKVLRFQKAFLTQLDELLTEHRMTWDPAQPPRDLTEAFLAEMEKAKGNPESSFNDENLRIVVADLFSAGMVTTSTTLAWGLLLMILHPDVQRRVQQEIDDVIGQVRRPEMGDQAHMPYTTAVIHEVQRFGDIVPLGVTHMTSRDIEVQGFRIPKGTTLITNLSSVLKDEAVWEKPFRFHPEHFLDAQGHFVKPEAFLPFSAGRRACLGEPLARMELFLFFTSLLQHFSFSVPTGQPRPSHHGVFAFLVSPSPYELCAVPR
T3 sequence (P08684 whole entry): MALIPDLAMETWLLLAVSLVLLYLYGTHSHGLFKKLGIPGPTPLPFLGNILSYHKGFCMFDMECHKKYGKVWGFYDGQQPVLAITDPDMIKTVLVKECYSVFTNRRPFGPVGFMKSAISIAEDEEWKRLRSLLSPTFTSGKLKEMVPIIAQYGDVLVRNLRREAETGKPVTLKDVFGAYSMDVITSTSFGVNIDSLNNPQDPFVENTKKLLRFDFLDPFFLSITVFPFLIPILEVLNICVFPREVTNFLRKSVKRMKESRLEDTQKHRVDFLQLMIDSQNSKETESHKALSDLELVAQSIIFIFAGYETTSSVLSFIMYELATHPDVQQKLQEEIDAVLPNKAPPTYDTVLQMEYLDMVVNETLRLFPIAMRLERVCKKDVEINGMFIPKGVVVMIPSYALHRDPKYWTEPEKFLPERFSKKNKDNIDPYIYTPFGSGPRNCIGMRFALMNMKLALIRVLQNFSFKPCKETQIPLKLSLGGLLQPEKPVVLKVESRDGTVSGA

| Compound | inhibition at 10 µM (CYP1A1) [%] | inhibition at 10 µM (CYP1B1) [%] | other results |
| --- | --- | --- | --- |
| CC(C)=CCc1cc(C2CC(=O)c3ccc(O)c(CC=C(C)C)c3O2)ccc1O (configuration not stated) | 67.2 | 17.7 | IC50 (Cytochrome P450 2D6 [1]): > 20 µM; IC50 (Cytochrome P450 1A1 [2]): > 20 µM; IC50 (Cytochrome P450 3A4 [3]): > 20 µM; IC50 (Cytochrome P450 1B1 [4]): 15 µM; IC50 (Cytochrome P450 1A2 [5]): > 20 µM; IC50 (Cytochrome P450 2D6 [6]): > 20 µM; IC50 (Cytochrome P450 1A1 [7]): 17.6 µM; IC50 (Cytochrome P450 3A4 [8]): > 20 µM; IC50 (Cytochrome P450 1A2 [9]): > 20 µM; IC50 (Cytochrome P450 1B1 [10]): > 20 µM |
| CC(C)=CCc1cc(C2Oc3c(ccc(O)c3CC=C(C)C)C(=O)C2O)ccc1O (configuration not stated) | 31.4 | 7.5 |  |
| COc1ccc(C2COc3c(ccc4c3C=CC(C)(C)O4)C2)c(O)c1 (configuration not stated) | 29.6 | 12 |  |
| O=C(/C=C/c1ccc(O[C@H]2O[C@@H](CO)[C@H](O)[C@@H](O)[C@@H]2O[C@@H]2OC[C@](O)(CO)[C@H]2O)cc1)c1ccc(O)cc1O | 11.4 | -9.5 |  |
| COc1ccc2c(c1)OC1c3ccc(O)cc3OCC21 (configuration not stated) | 27.5 | 31.7 |  |
| O=c1cc(-c2ccccc2)oc2c1ccc1ccccc12 [ALPHA-NAPHTHOFLAVONE] | 97 |  |  |
| CC1(C)[C@@H](O)CC[C@]2(C)[C@H]3C(=O)C=C4[C@@H]5C[C@@](C)(C(=O)O)CC[C@]5(C)CC[C@@]4(C)[C@]3(C)CC[C@@H]12 [ENOXOLONE] | 11.4 | -2.1 |  |
| COc1ccc(-c2coc3cc(O)ccc3c2=O)cc1 [FORMONONETIN] | 10.8 | -1.3 |  |
| CC1(C)C=Cc2c(ccc3c2OC[C@@H](c2ccc(O)cc2O)C3)O1 [GLABRIDIN] | 36.8 | 26.6 |  |
| CC1(C)[C@@H](O[C@H]2O[C@H](C(=O)O)[C@@H](O)[C@H](O)[C@H]2O[C@@H]2O[C@H](C(=O)O)[C@@H](O)[C@H](O)[C@H]2O)CC[C@]2(C)[C@H]3C(=O)C=C4[C@@H]5C[C@@](C)(C(=O)O)CC[C@]5(C)CC[C@@]4(C)[C@]3(C)CC[C@@H]12 [GLYCYRRHIZIN] | 39 | 10.5 |  |
| O=C(/C=C/c1ccc(O)cc1)c1ccc(O)cc1O [ISOLIQUIRITIGENIN] | 22.3 | 3.1 |  |
| O=C1C[C@@H](c2ccc(O)cc2)Oc2cc(O)ccc21 [LIQUIRTIGENIN] | 19.2 | 38.2 |  |
| O=c1c(O)c(-c2ccc(O)c(O)c2)oc2cc(O)cc(O)c12 [QUERCETIN] | 31.5 | 67.2 | IC50 (Cytochrome P450 2D6 [1]): > 20 µM; IC50 (Cytochrome P450 2D6 [6]): > 20 µM |
